The values below come from publication PMC10747112, “Triphenylphosphine Derivatives of Allylbenzenes Express Antitumor and Adjuvant Activity When Solubilized with Cyclodextrin-Based Formulations” (Pharmaceuticals, 2023).

In series [1] the test system is A549 cells. The series can be described thus: MTT assay, synergy of adjuvants with paclitaxel against A549. The series is classed as cell-based, human. The conditions noted are these: X − M-β-CD, SC = CV(paclitaxel) × CV(adjuvant)/CV(combo). The text has this: Apparently PPh3 derivatives effectively penetrate into cancer cells along a potential gradient, inhibit efflux proteins and mitochondrial enzymes, causing the apoptosis of cancer cells, with IC50 values being lower by two orders of magnitude than the corresponding allylbenzene (Table 3). […] For allylbenzenes, a synergy close to additivity (the cytostatic effect of adjuvant + paclitaxel is almost equal to the sum of their individual contributions) was observed; for PPh3 derivatives, a pronounced increase in the action of paclitaxel is characteristic (the cytostatic effect of adjuvant + paclitaxel is much higher (>) than the sum of their individual contributions). For apiol-PPh3, the most pronounced effect of increasing the activity of paclitaxel was observed (Figure 4b).
Figure 4 Viability of A549 cells in the presence of paclitaxel and allylbenzenes’ PPh3 derivatives in the form of complexes with M-β-CD (1:5 mol/mol). MTT assay. (a) Dose–effect graphs. (b) MTT assay results for 100 nM paclitaxel alone and combined with allylbenzenes’ PPh3 derivatives in the form of complexes with M-β-CD (1:5 mol/mol).
(§1) The cytotoxic activity of paclitaxel, Apiol-PPh3 and analogues was determined using an MTT test. Paclitaxel-adjuvant synergism coefficients (SC) were calculated as CV (paclitaxel) × CV (alone adjuvant)/CV (combo paclitaxel + adjuvant), where CV represents the cell viability. The synergy coefficient can be interpreted as strong synergy (SC > 2), synergy (2 > SC > 1.2), indifference/additivity (1.2 > SC > 0.8), antagonism (0.8 > SC > 0.5), and inhibition (SC < 0.5), as described earlier.

Series [2] relates to A549 cells. The series can be described thus: MTT assay, cytotoxic activity against A549. The series is classed as cell-based. The conditions noted are these: Homo sapiens. The procedure: Concentrations of the active substance varied from 10^−2 to 10^−4 M. For MTT assay and biological experiments, substances in the concentration range from 10^−3 to 10^−9 M were studied by the dilution of initial ones in a cell growth medium or buffer.
Adenocarcinomic human alveolar basal epithelial cells A549 cell lines (Manassas, VA, USA) were cultured in RPMI-1640 medium, linear cells of the embryonic kidney human epithelium (HEK293T) were grown in DMEM medium as described earlier. Cell lines were obtained from Lomonosov Moscow State University Depository of Live Systems Collection and Laboratory of Medical Biotechnology, Institute of Biomedical Chemistry (Moscow, Russia).
as §1
Background: Formazan colour is commonly taken as a measure of viable cells.

Series [3] is described as follows: Solubility by UV spectroscopy (PBS, with and without M-β-CD). The series is classed as physicochemical. As to conditions: PBS. The procedure:
On the contrary, their complexes with M-β-CD are soluble, and a clear peak in the UV spectrum is pronounced (225 nm). Based on UV spectra data in the presence of M-β-CD, the increase in solubility of apiol-PPh3 and analogues by a second order of magnitude is observed (Table 2).
The solubility of apiol and apiol-PPh3 (or analogues) in aqueous solution was determined by UV spectroscopy. UV spectra were recorded on the UltraSpec 2100 pro device (AmerSham Biosciences, Cambridge, UK) three times. The substances were dissolved in acetonitrile followed by recording the UV spectra at various cytostatics’ concentrations, and then we plotted calibration dependencies. Next, saturated solutions of substances in water were prepared, and the spectra of the aqueous solutions were recorded. Considering the extinction coefficients in water and acetonitrile to be approximately equal, the solubility was determined.

On the set-up of series [4]: unit not given here. The conditions noted are these: unmodified allylbenzenes; cited from earlier work.
Series [5] has as its system cytochrome P450 3A4. As to conditions: read-out: IC50 cytochrome P450 3A4; cited from earlier work.
The subject of series [6] is cancer cells. The arrangement: method as in PMID 35128247. As to conditions: dillapiol 25–50 µM; cited from earlier work.
The test system of series [7] is whole blood. The series can be described thus: Thrombogenicity (whole blood thrombosis). As to conditions: X in M-β-CD; 0.1 mg/mL; relative to control with microscopic glass particles. From the text:
(§2) Hemolytic activity and thrombogenicity are the primary parameters for evaluating the safety of medical formulations. The phenotypic sea urchin embryo assay developed by colleagues is a visual way to study the toxicity of formulations in vivo. The sea urchin and human genomes contain more than 7000 common genes, including orthologs associated with a number of human diseases. Therefore, sea urchins can be considered as a reliable and versatile model organism for studying the safety of new and existing cytotoxic formulations in vivo. Table 5 presents data on the % of erythrocyte hemolysis, the degree of whole blood thrombosis of apiol-PPh3 and analogues, and data of phenotypic sea urchin embryo assay. Thus, the non-toxicity of PPh3 derivatives of allylbenzenes for normal non-cancer cells, as well as the selectivity of action against cancer cells, is shown. The selectivity of cytotoxic action against cancer cells in comparison with normal cells can be explained by the fact that the PPh3- cation provides selective accumulation and reduction in the mitochondrial membrane potential of the transformed cancer cells. Cyclodextrin (M-β-CD) and heparin are non-toxic (and approved by the FDA for intravenous application).
(§3) The hemolytic activity and thrombogenicity of apiol-PPh3 and analogues were studied using an earlier published technique.

The subject of series [8] is erythrocytes. Briefly: Hemolytic activity. The series is classed as cell-based. As to conditions: X in M-β-CD; 0.1 mg/mL; released hemoglobin relative to 0.05% Triton X-100 control.
Description: as §2, §3

Series [9] concerns sea urchin embryos. The series can be described thus: Phenotypic sea urchin embryo assay. The series is classed as in vivo. As to conditions: X in M-β-CD.
Description: as §2
Adult sea urchins, Paracentrotus lividus L. (Echinidae), were collected from the Mediterranean Sea on the Cyprus coast and kept in an aerated seawater tank and were used to study the cleavage alteration of Apiol-PPh3 and analogues. Experiments with sea urchin embryos comply with the requirements of biological ethics.

Series [10] relates to HEK293T cells. The series can be described thus: FTIR spectroscopy of HEK293T cells during incubation with drug (penetration/adsorption). The series is classed as cell-based, human. The conditions noted are these: 60 min incubation (apiol-PPh3 in M-β-CD) or pre-incubation (doxorubicin controls); 37 °C. From the text:
The main cell structural units that contribute to the absorption of IR diapason can be assigned as follows (Figure 5): lipids of the cell membrane (2800–3000 cm^−1), proteins, especially transmembrane (1500–1700 cm^−1), phosphate groups of DNA (1240 cm^−1) and carbohydrates, including lipopolysaccharides (900–1100 cm^−1). Previously, we developed a technique for tracking the penetration and adsorption of the drug into cells using FTIR spectroscopy: dramatic changes in the intensity of the peaks of amide 1 and amide 2 indicate effective penetration of the drug into cells and vice versa.
Here, we present the real-time data of FTIR spectroscopy during the incubation of a suspension of HEK293T cells with apiol-PPh3 in M-β-CD (Figure 5). […] There is only a shift of the peak of amide 1 to the low-frequency region (inserts in Figure 5, the normalized intensity is shown) and amide 2 to the high-frequency region with the simultaneous appearance of the shoulder. This indicates the only adsorption of drug molecules on the cell surface, which is also confirmed by a weak increase in the intensity of the peaks at 2850–3000 cm^−1 corresponding to the valence vibrations of the CH2 groups (lipid bilayer). Thus, PPh3 derivatives show only marginal activity against normal cells.

Where [11] appears, read: A549, read-out: −lg (IC50) of X in M-β-CD against A549.
Setting [12] is: A549, X in M-β-CD 1:5 mol/mol, MTT, read-out: −lg (IC50) of X in M-β-CD against A549 (converted).

Converted amounts (≈) assume the structure as drawn. Read-outs that look alike come from different tables or passages of the source. Marks after values point to notes of the source that are not given here. Some results are limits rather than exact numbers.

In general, IC50 refers to the midpoint of a concentration-inhibition curve. Regarding `C=CCc1cc(OC)c(OC)c(OC)c1OC` [Allyltetramethoxybenzene, allyltetramethoxybenzene, reference compound], the “Synergy Coefficients of Adjuvants and PPh3–Adjuvants with Paclitaxel” value (“Synergy Coefficients” below) in series [1] came to 1.4 ± 0.2. Moreover, the IC50 in series [2] (setting [11]) was 316 µM. Further, the “Solubility in PBS” value in series [3] came out at 0.16 ± 0.02 mM (≈ 38.1 µg/mL). Also, the “−lg Kd (X − M-β-CD)” value in [4] is given as 3.4 ± 0.3.

Turning to `C=CCc1cc(OC)c2c(c1OC)OCO2` [Apiol, 1-allyl-2,5-dimethoxy-3,4-methylenedioxybenzene], the “Synergy Coefficients” value in series [1] is 1.3 ± 0.2. In addition, the IC50 in [5] was 7.9 µM; in [2] (setting [11]), 251 µM. Besides, in series [3], the “Solubility in PBS” value came out at 0.13 ± 0.01 mM (≈ 28.9 µg/mL). For the same compound, the “−lg Kd (X − M-β-CD)” value in series [4] is 2.6 ± 0.3.

`C=CCc1cc2c(c(OC)c1OC)OCO2` [Dillapiol, dillapiol]: the “effect on cell cycle / apoptosis of cancer cells” value in series [6] is “induced G0/G1 cell cycle arrest”. Moreover, in [1], the “Synergy Coefficients” value is 1.1 ± 0.1. The IC50 in series [2] (setting [12]) was 631 µM. Moreover, the “−lg Kd (X − M-β-CD)” value in [4] is 2.7 ± 0.5.

As a reminder, the solubility is how much of the substance goes into solution per volume. As to `C=CCc1cc(OC)c2c(c1)OCO2` [Myristicin, myristicin, reference compound], the “Synergy Coefficients” value in series [1] is recorded as 0.9 ± 0.2. Also, the IC50 in [2] (setting [12]) is 1260 µM. Further, the solubility in [3] (aqueous buffer, thermodynamic from solid, read-out: Solubility in PBS) came out at 30 ± 7 µM (≈ 5.77 µg/mL). In series [4], the “−lg Kd (X − M-β-CD)” value is 3.5 ± 0.2.

Turning to `CC(=O)O[C@H]1C(=O)[C@@]2(C)[C@H]([C@H](OC(=O)c3ccccc3)[C@]3(O)C[C@H](OC(=O)[C@H](O)[C@@H](NC(=O)c4ccccc4)c4ccccc4)C(C)=C1C3(C)C)[C@]1(OC(C)=O)CO[C@@H]1C[C@@H]2O` [Paclitaxel, paclitaxel, reference compound], the “Thrombosis Index” value in series [7] turned out to be 0.6 ± 0.1%. The “Hemolysis Index” value in series [8] is on record as <0.5 (p = 0.012) %. In addition, the IC50 in series [2] (setting [12]) is 0.631 µM. In [9], the “Concentration Causing Changes in Sea Urchin Embryos” value is >4 *** μM.

Regarding `COc1cccc2c1C(=O)c1c(O)c3c(c(O)c1C2=O)C[C@@](O)(C(=O)CO)C[C@@H]3O[C@H]1C[C@H](N)[C@H](O)[C@H](C)O1` [doxorubicin, reference compound], in [10], the “changes in FTIR amide I and II peak intensity of HEK293T cells (drug penetration)” value is “Dramatic changes in the intensity of the amide 1 and amide 2 peaks”.
